pIC50: −log10 of the molar value. In brackets after ≈: the same amount, converted by molar mass. Read-outs that look alike come from different tables or passages of the source. Marks after values point to notes of the source that are not given here.
Key:
Rhizoctonia solani = assay: Antifungal MIC, twofold serial dilution in 96-well plates; format: cell-based; details: R. solani
[1] = system: Escherichia coli ATCC 25922; assay: Antibacterial MIC, twofold serial dilution in 96-well plates; format: cell-based; details: ATCC25922, E. coli
22Rv1 cells = assay: Cytotoxicity / antiproliferative MTT assay; format: cell-based, human; details: read-out: Cytotoxic IC50
Experimental: (§1) Cell viability was analyzed by 3-(4,5)-[…] (MTT) assay as previously described. In brief, cells were seeded in a 96-well plate at a density of 5 × 10^3 per well overnight and treated with compounds for demand time. OD570 values were detected using a Hybrid Multi-Mode Reader (Synergy H1, BioTek, Santa Clara, CA, USA). The experiment was independently repeated three times.

[2] = system: Verticillium dahlia kieb.; assay: Antifungal MIC, twofold serial dilution in 96-well plates; format: cell-based; details: V. dahlia
Botrytis cinerea = assay: as above; format: cell-based; details: B. cinerea
Septoria nodorum Berk. = assay: as above; format: cell-based; details: Parastagonospora nodorum; S. nodorum
[3] = system: Staphylococcus aureus ATCC 25923; assay: Antibacterial MIC, twofold serial dilution in 96-well plates; format: cell-based; details: S. aureus; for MIC: Staphylococcus aureus, ATCC25923
[4] = system: Erysipelothrix rhusiopathiae WH13013; assay: as above; format: cell-based; details: E. rhusiopathiae; for MIC: Erysipelothrix rhusiopathiae, WH13013
PC-3 cells [5] = assay: Cytotoxicity / antiproliferative MTT assay; format: cell-based; details: Homo sapiens, PC-3, PC-3 (androgen receptor negative); read-out: Cytotoxic IC50
Experimental: as §1

[6] = system: Fusarium graminearum schw.; assay: microbe, parasite or virus in culture; format: cell-based; details: read-out: Antifungal MIC
[7] = system: Botrytis cinerea, Verticillium dahlia kieb., Fusarium graminearum schw., Fusarium oxysporum f.sp. niveum, Rhizoctonia solani, Septoria nodorum Berk.; format: cell-based; details: range over B. cinerea, V. dahlia, R. solani, S. nodorum
[8] = system: Fusarium oxysporum f.sp. niveum; assay: Antifungal MIC, twofold serial dilution in 96-well plates; format: cell-based
Streptococcus suis SC19 = assay: Antibacterial MIC, twofold serial dilution in 96-well plates; format: cell-based; details: S. suis; for MIC: Streptococcus suis, SC19
PC-3 cells [9] = assay: Apoptosis assay, annexin V-FITC/PI flow cytometry; format: cell-based, human; details: 48 h
Text: (§2) Then, cells were collected and stained with annexin V-FITC and PI solution, following the manufacturer’s manual (BMS500FI-300, Thermo Fisher Scientific, Waltham, MA, USA). Apoptotic rates and cell cycle distribution of PC-3 cells were examined and analyzed by flow cytometer (NovoCyte, Agilent, Santa Clara, CA, USA). Each experiment was repeated three times independently.

A549 cells = assay: Cytotoxicity / antiproliferative MTT assay; format: cell-based; details: Homo sapiens, read-out: Cytotoxic IC50
Experimental: as §1

Hela cells = assay: Cytotoxicity / antiproliferative MTT assay; format: cell-based; details: Homo sapiens, read-out: Cytotoxic IC50
Experimental: as §1

[10] = Cytotoxicity / antiproliferative MTT assay; format: cell-based; details: human, WPMY-1 cells, read-out: Cytotoxic IC50
Experimental: as §1

WPMY-1 cells = assay: Cytotoxicity / antiproliferative MTT assay; format: cell-based; details: read-out: Cytotoxic IC50
Experimental: as §1

HepG2 cells = assay: Cytotoxicity / antiproliferative MTT assay; format: cell-based; details: read-out: Cytotoxic IC50
Experimental: as §1

PC-3 cells [11] = assay: Cell cycle distribution, flow cytometry; format: cell-based, human; details: 48 h
Text: as §2

PC-3 cells [12] = assay: Plate clone formation assay; format: cell-based, human; details: 0.16, 0.32 and 0.64 μM; two weeks
Experimental: The cell clone colony formation was observed after two weeks of treatment. Cells were fixed with 4% formaldehyde for 30 min and washed with PBS buffer, then stained with crystal violet stain solution for 30 min. The dye solution was removed and washed the cells with PBS buffer again. Cell colonies were recorded and analyzed by the colony count analysis system (GelCount, Oxford Optronix, Oxford, UK). The experiment was repeated three times independently.

[13] = system: HepG2, A549, Hela, WPMY-1, MC3T3-E1 cells; assay: Antiproliferative MTT assay, summary over other cells; format: cell-based; details: range over HepG2, A549, Hela, read-out: IC50 values against other cells
Experimental: as §1

human CCR5 receptor = molecular target: human CCR5 receptor; set-up: method as in PMID 15217290; details: read-out: IC50, inhibition of binding with human CCR5 receptor; cited from earlier work
[14] = Homo sapiens, 22Rv1, 22Rv1 (androgen receptor positive)

O=C1NC(=O)C(Cl)=C1Cl [Compound 3, 3,4-dichloro-1H-pyrrole-2,5-dione]
MIC (Rhizoctonia solani): 50 µg/mL (≈ 301 µM) | MIC [1]: > 100 µg/mL | pIC50 (22Rv1 cells; [14]): 5.08 | MIC [2]: 25 µg/mL (≈ 151 µM) | MIC (Botrytis cinerea): 25 µg/mL (≈ 151 µM) | MIC (Septoria nodorum Berk.): 25 µg/mL (≈ 151 µM) | MIC [3]: 100 µg/mL (≈ 603 µM) | MIC [4]: > 100 µg/mL | pIC50 (PC-3 cells [5]): 5.02 | MIC [6]: 50 µg/mL (≈ 301 µM) | melting point: 173 to 175 °C | MIC values against six fungi [7]: 25 to 50 µg/mL | MIC [8]: 50 µg/mL (≈ 301 µM) | MIC (Streptococcus suis SC19): 100 µg/mL (≈ 603 µM)

CC=C(C)C(OC(C)=O)C(C)C1=CC(=O)C2=C(OC3(C)CCC4OC(C(C)(C)O)CCC4(C)C3C2)C1=O (stereo not drawn) [Compound 4, stemphone C]
MIC (Rhizoctonia solani): > 100 µg/mL | MIC [1]: > 100 µg/mL | pIC50 (22Rv1 cells; 22Rv1 (androgen receptor positive)): 5.24 | pIC50 (22Rv1 cells; [14]): > 5.00 | MIC [2]: > 100 µg/mL | MIC (Botrytis cinerea): > 100 µg/mL | MIC (Septoria nodorum Berk.): 50 µg/mL (≈ 97.2 µM) | MIC [3]: > 100 µg/mL | Q3-1 quadrant, cells (PC-3 cells [9]; PC-3, 2.5 μM): 3.29% | Q3-2 quadrant (late apoptosis), cells (PC-3 cells [9]; PC-3, 2.5 μM): 1.02% | Q3-3 quadrant, cells (PC-3 cells [9]; PC-3, 2.5 μM): 94.52% | Q3-4 quadrant (early apoptosis), cells (PC-3 cells [9]; PC-3, 2.5 μM): 1.17% | Q3-1 quadrant, cells (PC-3 cells [9]; PC-3, 5.0 μM): 4.69% | Q3-2 quadrant (late apoptosis), cells (PC-3 cells [9]; PC-3, 5.0 μM): 4.89% | Q3-3 quadrant, cells (PC-3 cells [9]; PC-3, 5.0 μM): 83.56% | Q3-4 quadrant (early apoptosis), cells (PC-3 cells [9]; PC-3, 5.0 μM): 6.86% | Q3-1 quadrant, cells (PC-3 cells [9]; PC-3, 10.0 μM): 14.56% | Q3-2 quadrant (late apoptosis), cells (PC-3 cells [9]; PC-3, 10.0 μM): 36.84% | Q3-3 quadrant, cells (PC-3 cells [9]; PC-3, 10.0 μM): 33.95% | Q3-4 quadrant (early apoptosis), cells (PC-3 cells [9]; PC-3, 10.0 μM): 14.64% | MIC [4]: 1.56 µg/mL (≈ 3.03 µM) | pIC50 (A549 cells): 4.93 | pIC50 (Hela cells): 4.94 | pIC50 [10]: > 5.00 | pIC50 (WPMY-1 cells): 5.26 | pIC50 (HepG2 cells; HepG2): 5.15 | pIC50 (HepG2 cells; Homo sapiens, HepG2, HepG2): > 5.00 | Freq S (PC-3 cells [11]; PC-3, 10.0 μM): 59.14% | MIC [6]: > 100 µg/mL | Formation of clonal colonies of PC-3 cells (PC-3 cells [12]): significantly inhibited the formation of clonal colonies of PC-3 cells | pIC50 [13]: 4.93 to 5.44 | MIC [8]: > 100 µg/mL | MIC (Streptococcus suis SC19): 6.25 µg/mL (≈ 12.1 µM)

C[C@@H]1C[C@@H]([C@H](O)CC2CC(=O)NC(=O)C2)C(=O)[C@@H](C)C1 [Cycloheximide, reference compound]
MIC (Rhizoctonia solani): 100 µg/mL (≈ 355 µM) | MIC [2]: 12.5 µg/mL (≈ 44.4 µM) | MIC (Botrytis cinerea): 12.5 µg/mL (≈ 44.4 µM) | MIC (Septoria nodorum Berk.): 12.5 µg/mL (≈ 44.4 µM) | MIC [6]: 12.5 µg/mL (≈ 44.4 µM) | MIC [8]: > 100 µg/mL

CC(=O)O[C@@]12CO[C@@H]1C[C@H](O)[C@@]1(C)C(=O)[C@H](O)C3=C(C)[C@@H](OC(=O)[C@H](O)[C@@H](NC(=O)OC(C)(C)C)c4ccccc4)C[C@@](O)([C@@H](OC(=O)c4ccccc4)[C@H]21)C3(C)C [Docetaxel, reference compound]
pIC50 (22Rv1 cells; [14]): 7.52 | Q3-1 quadrant, cells (PC-3 cells [9]; PC-3, 1.0 μM): 5.87% | Q3-2 quadrant (late apoptosis), cells (PC-3 cells [9]; PC-3, 1.0 μM): 1.68% | Q3-3 quadrant, cells (PC-3 cells [9]; PC-3, 1.0 μM): 89.89% | Q3-4 quadrant (early apoptosis), cells (PC-3 cells [9]; PC-3, 1.0 μM): 2.57% | pIC50 (A549 cells): 4.52 | pIC50 [10]: 6.29 | pIC50 (HepG2 cells; Homo sapiens, HepG2, HepG2): 3.75 | pIC50 (PC-3 cells [5]): 6.92 | Freq G2 (G2/M) (PC-3 cells [11]; PC-3, 1.0 μM): 71.23%

CC(C)=CCC[C@H](C)[C@H]1CC[C@]2(C)C[C@H]3[C@H](C(=O)C[C@@]3(C)O)/C(C=O)=C\C[C@@H]12 [Ophiobolin C]
pIC50 (human CCR5 receptor): 4.40

[H]/N=C(/N)N[C@H]1[C@H](O)[C@@H](O)[C@H](O[C@@H]2O[C@@H](C)[C@](O)(C=O)[C@H]2O[C@@H]2O[C@@H](CO)[C@H](O)[C@@H](O)[C@@H]2NC)[C@@H](N/C(N)=N\[H])[C@@H]1O [Streptomycin, reference compound]
MIC [1]: 50 µg/mL (≈ 86 µM)

Penicillin [reference compound]
Antibacterial MIC [3]: 6.25 ^b μg/mL | Antibacterial MIC [4]: 6.25^b μg/mL | Antibacterial MIC ([4]; listed as penicillin): 6.25 µg/mL | Antibacterial MIC (Streptococcus suis SC19): 1.56 ^b μg/mL
